Experimental data: patent publication US20210341378A1, “HIGH-CONTENT IMAGING OF MICROFLUIDIC DEVICES” (priority 2019, published 2021)

Legend:
[1] = system: microfluidic devices seeded with human liver cells; assay: Albumin secretion (ELISA), human Liver-Chip; assay type: cell-based
Description: Prior to cell seeding, microfluidic devices, in this case S-I Chips (Emulate, Inc. Boston, Mass., USA), were functionalized using Emulate's proprietary protocols and reagents (ER™), including those described herein. After surface functionalization, both channels of the microfluidic device were coated with species-specific extracellular matrices (ECM). For the human bound microfluidic device, a mixture of collagen type I (Corning, Corning, N.Y., USA) and fibronectin, e.g. bovine, (Gibco) was used; for the rat bound microfluidic devices a mixture of collagen type IV, e.g. human placenta, (Sigma-Aldrich, St. Louis, Mo., USA) and fibronectin (Gibco) was used; for the dog bound microfluidic devices a mixture of collagen I (Corning), collagen type IV (Sigma-Aldrich), and fibronectin (Gibco) was used. […] For the dual-cell culture model (hepatocytes and endothelial cells), the LSECs were seeded at a concentration of 2-4 million cells/mL in the lower vascular channel. […] After cell seeding, the upper channel of the microfluidic device was maintained in William's E Medium (WEM) containing Glutamax (Gibco), ITS+ (Corning), dexamethasone (Sigma-Aldrich), ascorbic acid (Sigma-Aldrich), fetal bovine serum (FBS) (Sigma-Aldrich), and Penicillin/Streptomycin (Sigma-Aldrich). The vascular channel of the microfluidic device was maintained with species-specific endothelial media (Emulate, Inc.). Two days after seeding, the microfluidic devices were connected to the Human Emulation System™ (Emulate, Inc.), as described in part herein, and both of the microfluidic device channels were perfused at 30 μL/hr to provide a continuous supply of fresh media for the duration of the experiments. Albumin secretion from the upper channel was quantified using ELISA kits for human, rat, and dog models effluent samples (human and rat: Abcam; dog: Immunology Consultants Laboratory, Inc., Portland, Oreg., USA) and the assays were performed according to the protocol provided by each vendor.

[2] = system: microfluidic devices seeded with human liver cells; assay: APAP metabolite quantification by LC-MS, human Liver-Chip; assay type: in vitro ADME; details: daily 3 mM for 20 days, quadruple-cell human chip
Description: After APAP exposure to microfluidic devices seeded with human liver cells, effluent metabolite levels were quantified using LC-MS analysis. […] APAP-Glucuronide (APAP-Glu), the primary metabolite of APAP, was not quantified using a standard curve. Rather, the LC-MS peak area of APAP-Glu was reported corresponding to each sample.

[3] = system: microfluidic devices seeded with human liver cells; assay: Cytokine release (IL-6, MCP-1, IP-10) from vascular channel, human Liver-Chip; assay type: cell-based
Method: Cytokines: Release of IL-6, MCP-1, and IP-10 from the vascular channel was quantified using U-PLEX biomarker human assays (Meso Scale Diagnostics, Rockville, Md., USA) and the assays were performed according to the protocol provided by the vendor.

[4] = system: microfluidic devices seeded with human liver cells; assay: Lipid accumulation (Nile red / AdipoRed), human Liver-Chip; assay type: cell-based; details: daily 1, 10 and 30 μM for 7 days, quadruple-cell chip
Description: Microfluidic devices seeded with liver cells were stained in the upper channel with 5(6)-Carboxy-2′,7′-dichlorofluorescein diacetate (CDFDA) (ThermoFisher) to visualize bile canaliculi and MRP2 activity, cholyl-lysyl-fluorescein (CLF) (Corning) to visualize bile canaliculi and BSEP activity, Nile red (ThermoFisher) or AdipoRed (Lonza) to visualize lipid droplet accumulation, Tetramethylrhodamine, methyl ester (TMRM) (ThermoFisher) to visualize active mitochondria, and CellROX® (ThermoFisher) to visualize cellular oxidative stress. Each staining solution was prepared in blank medium or compound dosing medium and added to the upper channel, incubated for 15 minutes at 37° C., and washed three times with medium. The stained microfluidic devices were imaged using a specific filter, and were de-blurred with Olympus cellSens software. Using ImageJ-Fiji, the fluorescent channel images were histogram adjusted to remove background, followed by fluorescence quantification using the Integrated Density calculation function.
The stained microfluidic devices were imaged using the TRITC filter, and were de-blurred with Olympus cellSens software. Using ImageJ-Fiji, the fluorescent channel images were histogram adjusted to remove background, followed by fluorescence quantification using the Integrated Density calculation function. N=5 FOVs per microfluidic device were analyzed for conditions: vehicle (0.1% DMSO), FIAU dosing groups, and MTX dosing groups.

stellate cells = assay: Stellate cell activation (alpha-SMA), human Liver-Chip; assay type: cell-based; details: daily 1, 10 and 30 μM for 7 days, quadruple-cell chip
Method: (§1) Microfluidic devices seeded with liver cells and static sandwich plate cultures were fixed with 4% paraformaldehyde for 15 minutes at room temperature, washed with PBS, and permeabilized (saponin 1% with 10% serum in PBS). Blocking and incubation with the primary antibodies (overnight in PBS containing 1% BSA or PBS containing 10% serum and 1% BSA) was followed by a two-hour incubation with secondary antibodies (Cell Signaling, Danvers, Mass., USA) in the same blocking buffer. Immunostaining was performed with specific primary antibodies (anti-MRP2, anti-stabilin-1, anti-BSEP, anti-α-SMA, anti-CD68; Abcam, Cambridge, Mass., USA) and images were acquired with either an Olympus fluorescence microscope (IX83) or Zeiss confocal microscope (AxiovertZ1 LSM880).
(§2) The number of CD68- or α-SMA-positive cells in the vascular channel in each group was counted in each field of view ([…]) and quantified.
The fluorescent channel (588) was first background subtracted and processed using the median filter of Image J. After processing, the signal was thresholded using adaptive thresholding function of Image J (Otsu method) to extract fluorescent regions and to measure the relative intensity of the fluorescent signal. N=4 to 6 FOVs per microfluidic device from each microfluidic device were analyzed. […]

[5] = some patient populations; cited from earlier work
[6] = system: microfluidic devices seeded with liver cells (hepatocytes and LSECs); assay: High-content confocal imaging of Liver-Chips treated with staurosporine; assay type: cell-based, human; details: 10 μM, six hours of exposure
Method: Microfluidic devices were obtained from Emulate Inc. (USA) and are illustrated in FIG. 1A. The channels of the microfluidic devices were coated with a proprietary mixture of extracellular matrix and were incubated overnight at 37° C. Primary human cryopreserved hepatocytes sourced from ThermoFisher, as one example, were seeded in the top channel at a density of 3.5×10^6 cells/mL, and were left to form an attached monolayer at 37° C. in a humidified incubator with a 95%/5% ratio of air to CO2.
Twenty-four hours after seeding, the hepatocyte monolayer was overlaid with Matrigel Matrix sourced from Corning, USA. Primary human cryopreserved liver sinusoidal endothelial cells, also known as LSECs, were seeded on the bottom channel of the microfluidic device at a density of 2 to 4×10^6 cells/mL in endothelial medium, also known as CSC medium or Base LSEC Culture Medium; CSC basal Medium plus Culture-Boost (2%), Cell Systems, and Pen/Strep (1%), Sigma. In some embodiments, endothelial cells are cultured in Complete LSEC Culture Medium, Base LSEC Culture Medium plus 10% FBS. […]
The effects of agents, such as staurosporine on cell phenotype was evaluated. […] The protocol was chosen as it was analogous to how the compound has been evaluated in vivo. […]

Kupffer cells = assay: Kupffer cell count (CD68-positive cells), human Liver-Chip; assay type: cell-based; details: human quadruple-cell chip
Method: as §1, §2

rats = assay: Repeat-dose toxicity studies in rats; assay type: in vivo; details: rat study of the cFMS/FLT3 inhibitor
Method: (§3) JNJ-1, prepared in purified water, was administered once daily for 14 days to 5 male and 5 female rats at doses of 5, 25, and 125 mg/kg. In a separate study, JNJ-1, also in purified water, was administered once daily for 4 weeks to 5 male and 5 female dogs at 0 or 40 mg/kg/day, and to 3 males and 3 female dogs at 2 or 10 mg/kg/day. Mortality, clinical observations, body weight, food consumption, clinical pathology, gross necropsy and microscopic examination of selected tissues, and toxicokinetics were evaluated. Rats or dogs were fasted overnight prior to blood collection for measurement of clinical pathology parameters (including AST and ALT) at the end of 14 days (rats) or 4 weeks (dogs) of dosing. Histology slides (hematoxylin and eosin staining and Mason's Trichrome staining) of the liver tissues were prepared and evaluated microscopically. The quantification of JNJ-1 was conducted using a qualified liquid chromatographic-triple quadrupole mass spectrometric (LC-MS/MS) procedure.
Regarding histology procedures, the liver was sampled. Briefly, 5 serial sections were prepared. One was stained with hematoxylin and eosin (H&E) kit. The 4 others were submitted to histochemical and immunohistochemical stains. Collagen was detected with the Van Gieson kit (Merck, Darmstadt, Germany), and reticulin, with the Reticulum kit (Sigma-Aldrich). […]

dogs = assay: Repeat-dose toxicity studies in dogs; assay type: in vivo; details: dog study of the cFMS/FLT3 inhibitor
Method: as §3, with “Rats or dogs were fasted overnight prior to blood collection for measurement of clinical pathology parameters (including AST and ALT) at the end of 14 days (rats) or 4 weeks (dogs) of dosing.” left out
JNJ-3 (in 20% hydroxypropyl-β-cyclodextrin) was administered once daily for 14 days to 3 male beagle dogs per group at doses of 15 and 65 mg/kg. Mortality, clinical observations, body weight, food consumption, clinical pathology, gross necropsy and microscopic examination of selected tissues, and toxicokinetics were evaluated. […] Histology slides (hematoxylin and eosin staining and Mason's Trichrome staining) of the liver tissues were prepared and evaluated microscopically. […]

[7] = system: microfluidic devices seeded with rat liver cells; assay: Albumin secretion (ELISA), rat Liver-Chip; assay type: cell-based; details: 168 h; dual-cell rat chips, daily administration 1-100 μM for 7 days; read-out: IC50 of decrease in albumin secretion
Description: Prior to cell seeding, microfluidic devices, in this case S-I Chips (Emulate, Inc. Boston, Mass., USA), were functionalized using Emulate's proprietary protocols and reagents (ER™), including those described herein. After surface functionalization, both channels of the microfluidic device were coated with species-specific extracellular matrices (ECM). For the human bound microfluidic device, a mixture of collagen type I (Corning, Corning, N.Y., USA) and fibronectin, e.g. bovine, (Gibco) was used; for the rat bound microfluidic devices a mixture of collagen type IV, e.g. human placenta, (Sigma-Aldrich, St. Louis, Mo., USA) and fibronectin (Gibco) was used; for the dog bound microfluidic devices a mixture of collagen I (Corning), collagen type IV (Sigma-Aldrich), and fibronectin (Gibco) was used. […] For the dual-cell culture model (hepatocytes and endothelial cells), the LSECs were seeded at a concentration of 2-4 million cells/mL in the lower vascular channel. […] Albumin secretion from the upper channel was quantified using ELISA kits for human, rat, and dog models effluent samples (human and rat: Abcam; dog: Immunology Consultants Laboratory, Inc., Portland, Oreg., USA) and the assays were performed according to the protocol provided by each vendor.

[8] = biological target: T1, bile salt export pump (BSEP) (Homo sapiens, UniProt O95342); assay: CLF efflux into bile canaliculi (BSEP activity), human Liver-Chip; assay type: cell-based; details: 30 μM, co-treatment with CLF
T1 construct: Primary rat, dog or human hepatocytes were cultured in the upper parenchymal channel; endogenous in cells; host or cells: primary human hepatocytes co-cultured with LSECs in a microfluidic Liver-Chip
T1 sequence (O95342 whole entry): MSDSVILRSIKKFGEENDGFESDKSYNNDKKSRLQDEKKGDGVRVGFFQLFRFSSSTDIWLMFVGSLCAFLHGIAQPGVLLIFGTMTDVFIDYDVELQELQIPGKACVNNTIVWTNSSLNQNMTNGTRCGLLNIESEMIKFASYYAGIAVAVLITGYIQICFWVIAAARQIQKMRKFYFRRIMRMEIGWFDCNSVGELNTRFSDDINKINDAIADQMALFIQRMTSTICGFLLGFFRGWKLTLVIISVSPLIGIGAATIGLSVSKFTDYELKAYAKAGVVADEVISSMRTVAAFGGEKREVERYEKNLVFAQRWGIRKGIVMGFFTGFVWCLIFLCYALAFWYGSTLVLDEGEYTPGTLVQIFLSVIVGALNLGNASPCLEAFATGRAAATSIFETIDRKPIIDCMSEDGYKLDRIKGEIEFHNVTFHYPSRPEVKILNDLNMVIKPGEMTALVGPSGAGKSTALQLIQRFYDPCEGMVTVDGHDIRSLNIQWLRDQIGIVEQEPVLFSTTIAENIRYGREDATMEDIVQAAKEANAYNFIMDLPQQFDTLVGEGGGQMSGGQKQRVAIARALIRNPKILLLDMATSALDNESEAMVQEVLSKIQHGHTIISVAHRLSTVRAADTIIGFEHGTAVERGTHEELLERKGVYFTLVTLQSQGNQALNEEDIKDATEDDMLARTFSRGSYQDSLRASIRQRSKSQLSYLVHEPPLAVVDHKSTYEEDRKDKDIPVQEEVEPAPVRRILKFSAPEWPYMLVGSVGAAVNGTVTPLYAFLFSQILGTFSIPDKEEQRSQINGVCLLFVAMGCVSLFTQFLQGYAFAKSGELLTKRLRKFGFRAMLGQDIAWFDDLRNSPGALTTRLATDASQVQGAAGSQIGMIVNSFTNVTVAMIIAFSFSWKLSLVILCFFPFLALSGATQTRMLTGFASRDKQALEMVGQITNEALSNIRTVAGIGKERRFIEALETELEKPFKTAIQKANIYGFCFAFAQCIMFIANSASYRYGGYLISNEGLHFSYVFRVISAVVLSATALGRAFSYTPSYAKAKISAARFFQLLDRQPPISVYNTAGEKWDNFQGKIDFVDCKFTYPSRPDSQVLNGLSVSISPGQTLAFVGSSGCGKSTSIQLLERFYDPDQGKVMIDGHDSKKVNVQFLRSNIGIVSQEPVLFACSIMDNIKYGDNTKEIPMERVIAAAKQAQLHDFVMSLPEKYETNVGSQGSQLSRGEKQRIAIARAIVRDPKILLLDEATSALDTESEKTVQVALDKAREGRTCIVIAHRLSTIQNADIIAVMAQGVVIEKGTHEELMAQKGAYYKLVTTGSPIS
Method: Both a brightfield and a fluorescence image was taken from each field of view. […] CLF-labeled regions that most likely to corresponded to bile canaliculi were automatically identified based on geometric criteria and retained only if they co-localized with a bile canaliculi signal in channel 1. […] These criteria were determined empirically using a small test set of images and then applied to images for the analysis. […] The data for treated and control samples were quantified by computing the area percentage of CLF-labeled bile canaliculi within each field of view (FOV).

BSEP = BSEP protein area and gene expression, human Liver-Chip; assay type: cell-based; details: 30 μM
Method: In one embodiment, gene expression levels were analyzed using 2-step PCR. […] Relative gene expression levels were calculated using ddCt method.
The fluorescent channel images were first de-blurred with Olympus cellSens software. Using ImageJ, they were then histogram adjusted to remove background, adaptive thresholded to extract fluorescent regions (a plugin developed by Qingzong Tseng using the adaptive threshold method of the OpenCV library), and analyzed using the built-in 3D Object Counter function with an area cutoff value to remove noise.

[9] = system: 3D human spheroid hepatic cultures; details: fold higher than the human Liver-Chip IC50; cited from earlier work

With CC(=O)Nc1ccc(O)cc1 [APAP, acetaminophen] the albumin synthesis ([1]; APAP 7 days, quadruple-cell human chip) was “decreased” and the “APAP glucuronide in parenchymal and vascular channels” value [2] was “significant amounts”.
For CN(Cc1cnc2nc(N)nc(N)c2n1)c1ccc(C(=O)N[C@@H](CCC(=O)O)C(=O)O)cc1 [MTX, Methotrexate], the albumin secretion ([1]; MTX 1, 10 and 30 μM for 7 days, quadruple-cell chip) was “no abnormalities”, the IP-10 ([3]; MTX treatment, 1 day, vascular channel) was “increases” and the “cytokines/chemokines including IP-10” value ([3]; treated Liver-Chips (discussion)) was “release”. The “lipid accumulation detected by Nile red” value [4] was “microscopic evidence of lipid accumulation”, the “expression of α-SMA (stellate cell activation)” value (stellate cells) was “increased expression” and the “maximal plasma concentrations at which liver injury occurs in humans” value [5] was ~1 µM.
For CN[C@@H]1C[C@H]2O[C@@](C)([C@@H]1OC)n1c3ccccc3c3c4c(c5c6ccccc6n2c5c31)C(=O)NC4 [Staurosporine, staurosporine], the LSECs [6] was “complete loss” and the “apoptotic marker (CC3)” value [6] was “marked increases”.
With CN(C)CC(=O)N1CCC(c2ccc(NC(=O)c3nc(C#N)c[nH]3)c(C3=CCCCC3)c2)CC1 [a JNJ compound] the “CD68-positive cells (Kupffer cell depletion)” value (Kupffer cells) was “decreased number”, the “interleukin 6 (IL-6) in the vascular channel” value ([3]; human quadruple-cell chip) was “dose-dependent decrease” and the “monocyte chemoattractant protein-1 (MCP-1) in the vascular channel” value ([3]; human quadruple-cell chip) was “dose-dependent decrease”. For the same compound, the “microscopic changes in the liver” value (rats) was “without any correlative microscopic changes”, the transaminases (rats) was “Dose-related elevation” and the “microscopic changes in the liver” value (dogs) was “without any correlative microscopic changes”. For the same compound, the transaminases (dogs) was “Dose-related elevation”.
With COc1ccccc1Oc1c(NS(=O)(=O)c2ccc(C(C)(C)C)cc2)nc(-c2ncccn2)nc1OCCO [bosentan] the IC50 [7] was > 100 µM, the “CLF in human hepatocytes” value [8] was “intracellular accumulation” and the “BSEP mRNA levels” value (BSEP) was “decreases”. The BSEP protein levels (BSEP) was “decreases” and the “IC50 in 3D human spheroid hepatic cultures relative to human chip” value [9] was “more than 10 fold”.
